What all share (format): cell-based, P. falciparum
The test system of experiment [1] is Dd2-B2. As to the method: Screening of HZ NPDG-I resistant clones was performed at 1% parasitemia, 0.2% hematocrit with flow cytometry in V-shaped 96-well plates. Briefly, compounds were subjected to a 3-fold serial dilution with the highest concentration set at 4 μM or 8 μM. Eleven dilution points were included in addition to no-drug controls. Three technical replicates were set up for each compound at each dilution point. The Dd2-B2 parent line, or the clonal line 1B2, 2B3, 3A3, or 1E2 were added at 0.4% hematocrit and 1% parasitemia to the diluted compounds at a 1:1 ratio. The plate was incubated at 37°C for 72 h in a chamber filled with a hypoxic gas mixture (3% oxygen, 5% carbon dioxide, and 92% nitrogen). After incubation, a blood pellet was formed at the bottom of each well of the 96-well plate. Supernatant was removed without disturbing the pellet, and 20 μl of SYTO 61(1:10,000 dilution; Thermo Fisher Scientific, Cat No. S11343) in PBS was added to each well and incubated for 15 mins at room temperature. The cells in each well were then diluted with 180 μl of PBS and subjected to flow cytometry for parasitemia determination using the HTS (High-Throughput Sampler) of BD FACSCanto II (BD Biosciences, NJ). Flow cytometry data was analyzed using FlowJo Version 10.4.0. Dose response curves were generated and IC50 values obtained with GraphPad Prism Version 9.1.1.
A clone of the Dd2 strain (Dd2-B2) of P. falciparum was used for in vitro evolution of resistance against harzianin NPDG I. Three flasks of 1.2 x 10^8 parasites were continuously exposed to a stepwise-increasing concentration of the compound over ∼3 months starting from 20 nM up to a final concentration of 100 nM. Once a stable rightward shift in 72 h IC50 was observed, cultures were subjected to limiting dilution to obtained harzianin-resistant clones. Each clone was expanded, phenotyped to confirm resistance, and submitted for whole genome sequencing. An untreated flask of Dd2-B2 parasites was maintained in parallel throughout the course of in vitro selection as a control.

In experiment [2] the test system is Attb. The conditions noted are these: Asexual Blood Stage DHODH; mean ± SEM of 3 biological replicates. As to the method:
(§1) Parasites grown in the Winzeler laboratory for screening and drug selections were maintained in RPMI 1640 medium supplemented with 0.25% Albumax I, 26 mM sodium bicarbonate, 0.1 mM hypoxanthine, and […] gentamicin. Human O+ whole blood obtained from the Blood Bank of The Scripps Research Institute was used for cultivation (human subjects IRB number: 125933). Blood-stage cultures were kept at 37°C with 5% CO2, 3% O2, and 92% N2. Monitoring of parasitemia and parasite morphology was performed using microscopic evaluation of thin blood smears that were first fixed with methanol, and then stained with Giemsa.
(§2) Cross resistance screening was performed with 0.3% parasitemia, 2.5% hematocrit, dispensed into 1536-well black, clear bottom plates with pre-spotted compound using a MultiFloTM Microplate dispenser (BioTek) at a volume of 8 μL/well. Plates where then incubated at 37°C for 72 h, after which 10× SYBR Green I (Invitrogen) in a lysis buffer (20 mM Tris/HCl, 5 mM EDTA, 0.16% (w/v) saponin, 1.6% (v/v) […]) was then added using a MultiFloTM Microplate dispenser (BioTek) at a volume of 2 μL/well. After 24 h incubation at room temperature, viability was measured via fluorescence using the EnVision® Multilabel Reader (PerkinElmer) (485 nm excitation, 530 nm emission). IC50 values were determined in CDD vault (https://www.collaborativedrug.com/).

Experiment [3] deals with attb ScDHODH. The settings on record: Asexual Blood Stage DHODH; line expressing S. cerevisiae DHODH; mean ± SEM of 3 biological replicates. As to the method: as §1, §2

For 1 molecule, IC50 and EC50 results are on record in PMC10923054, “Antiplasmodial peptaibols act through membrane directed mechanisms” (Cell Chemical Biology, 2024).

By IC50 is commonly meant the midpoint of a concentration-inhibition curve. Usually EC50 stands for the concentration needed to bring the measured effect to its halfway point. The low end stands for higher potency in that assay, the high end for lower potency in that assay.

Read-outs that look alike come from different tables or passages of the source. Square brackets hold non-standard residues; d marks the D form. Peptide text beside a SMILES is read from it. Leu(ol) = CC(C)C[C@H](N)CO; dIva = CC[C@@](C)(N)C(=O)O; Aib = CC(C)(N)C(=O)O

In the case of `CC[C@H](C)[C@H](NC(=O)[C@H](CC(C)C)NC(=O)[C@H](CCC(N)=O)NC(=O)[C@@](C)(CC)NC(C)=O)C(=O)NC(C)(C)C(=O)N1CCC[C@H]1C(=O)N[C@](C)(CC)C(=O)N[C@@H](CC(C)C)C(=O)NC(C)(C)C(=O)N1CCC[C@H]1C(=O)N[C@H](CO)CC(C)C` [HZ NPDG-I, harzianin NPDG I] (Ac-[dIva]QLI[Aib]P[dIva]L[Aib]P[Leu(ol)]), the IC50 in experiment [1] (flask 1, read-out: IC50, Dd2-B2 parent) was determined as 0.0536 nM; in experiment [1] (flask 2, read-out: IC50, Dd2-B2 parent), 0.0222 nM; in experiment [1] (flask 3, read-out: IC50, DD2-B2 parent) it was 0.0437 nM. In addition, the results for the EC50 in experiment [2] and in experiment [3] were 5.7 ± 2.3 nM and 9.1 ± 1.5 nM, respectively.
